In patent US9777106B2, “Bisphenol polymer precursor replacements” (CASE WESTERN RESERVE UNIVERSITY, priority 2013, dated 2017):

Key:
[1] = tested on: mouse embryonic stem cell line (endothelial differentiation reporter); assay: Endothelial differentiation assay in reporter mouse embryonic stem cell line (green fluorescent protein readout); format: cell-based; details: FIG. 1; for effect on estrogen receptor function: reporter cell line; for effect on cell (endothelial) differentiation: reporter mouse embryonic stem cell line, cells differentiated after incubation
Description: Bisphenols have come under increasing scrutiny due to their capacity to mimic estrogen in biological systems, resulting in numerous health complications. Specifically these effects have been observed in endothelial cell differentiation. Bredhult et al., “Gene expression analysis of human endometrial endothelial cells exposed to Bisphenol A,” Reproductive toxicology (Elmsford, N.Y 28, 18-25 (2009). Long et al., Experimental biology and medicine, 226, 477-483 (2001). Accordingly, experiments have been carried out to evaluate the cytotoxicity and differentiation effect of a biologically derived bisphenol polymer precursor replacement. Resveratrol and bisphenol A were incubated with mouse embryonic stem cells and evaluated for cytotoxicity and apoptosis. Cells were then differentiated and evaluated for effect on endothelial differentiation. […] Further studies are planned to test further stages of resveratrol epoxidization. The inventor's lab has developed a mouse embryonic stem cell line capable of providing a quantitative readout of endothelial differentiation due to expression of a green fluorescent protein. Using these and similar cell lines we have been able to assay the effect of new molecules on cell proliferation, death, apoptosis, and endothelial differentiation. Robilotto et al., Dalton Transactions, 40(32): 8083-5 (2011). This cell line will be used to determine the biological effect of the newly proposed polymers as compared to the effect of benchmark controls. Protocols similar to those previously published can be used to determine the biocompatibility of the new polymers as compared to that of benchmark resin, evaluating the capacity of mouse embryonic stem cells to proliferate, their rate of cell death by toxicity or apoptosis, and their capacity to differentiate into […]. Kim et al., Tissue engineering, 15, 3709-3718 (2009); Kim et al., Tissue engineering, 16, 1065-1074 (2010).

[2] = tested on: mouse embryonic stem cells; assay: Cytotoxicity and apoptosis assay (annexin-V / 7-AAD) in mouse embryonic stem cells; format: cell-based; details: incubated with mouse embryonic stem cells; FIG. 1
Description: Bisphenols have come under increasing scrutiny due to their capacity to mimic estrogen in biological systems, resulting in numerous health complications. Specifically these effects have been observed in endothelial cell differentiation. Bredhult et al., “Gene expression analysis of human endometrial endothelial cells exposed to Bisphenol A,” Reproductive toxicology (Elmsford, N.Y 28, 18-25 (2009). Long et al., Experimental biology and medicine, 226, 477-483 (2001). Accordingly, experiments have been carried out to evaluate the cytotoxicity and differentiation effect of a biologically derived bisphenol polymer precursor replacement. Resveratrol and bisphenol A were incubated with mouse embryonic stem cells and evaluated for cytotoxicity and apoptosis. Cells were then differentiated and evaluated for effect on endothelial differentiation. […]
The procedure for testing toxicity was and can be carried out as follows. […] 100,000 E14 cells were added to a 10 cm plate, covered with 1, 10 and 100 mg of polymer sample, and incubated for 48 hours followed by application of the MTT dye solutions and measurement of absorbance at 570 nm.
The number of apoptotic cells are quantified using an annexin-V apoptosis staining kit with 7-Amino-actinomycin D (7-AAD) vital stain (AnnexinV—PE Apoptosis Detection Kit; BD Biosciences Pharmingen, San Diego, Calif.). […]

Row | SMILES | effect on estrogen receptor function [1] | effect on estrogen receptor function ([1]; listed as BPA) | effect on cell (endothelial) differentiation [1] | effect on cell (endothelial) differentiation ([1]; listed as BPA) | over toxicity using the apoptosis assay [2]
1 | CC(C)(c1ccc(O)cc1)c1ccc(O)cc1 [bisphenol A] | clearly interferes with estrogen receptor function | interferes estrogen receptor function | negatively effects cell differentiation | negatively impacts cell differentiation | relatively indistinguishable
2 | Oc1ccc(C=Cc2cc(O)cc(O)c2)cc1 [Resveratrol, resveratrol] | little to no impact on estrogen receptor function | – | comparable to negative controls | – | relatively indistinguishable
